The source of these data is patent US8273386B2, “Use of hop acids in fruit juices, fruit juice concentrates and other beverages to inhibit Alicyclobacillus bacteria” (MillerCoors LLC, priority 2004, dated 2012).

Common to all, as to assay type: cell-based
For experiment [1], the system named is Alicyclobacillus acidoterrestris. The experiment is described as follows: Minimal Inhibitory Concentration (MIC) assay, broth dilution in BAM, turbidity scored visually. Particulars: for Growth in BAM at pH 4.0 at 45° C.: turbidity after 72 hours. Here is the method:
The basic assay was performed by serially diluting the inhibitors using a two-fold dilution series in a nutrient broth. The dilutions provided inhibitor concentrations in the range of 0.025 ppm to 100 ppm. The nutrient broth used was the American Type Culture Collection Bacillus Agar Medium (BAM) (at pH 4.0 and at 45° C.) for the Alicyclobacillus acidoterrestris. All dilution series were inoculated with approximately 10,000 bacteria per 5 ml. broth tube of freshly cultured (using the same medium) cells per 5 ml. of test assay broth. In each assay, an inoculated sample of the broth without any inhibitor addition was used as a control. Growth was evaluated by visually assessing and scoring the development of turbidity in the broth after 72 hours. The results of the studies are summarized in Table 1 which gives the data from testing the effectiveness of the tetrahydroisohumulone, hexahydrocolupulone and colupulone in inhibiting Alicyclobacillus acidoterrestris. […] Hexahydrocolupulone inhibited the Alicyclobacillus acidoterrestris test strain at or above 50 ppm. Colupulone inhibited the Alicyclobacillus acidoterrestris test strain at or above 50 ppm.

Experiment [2] deals with Alicyclobacillus acidocaldarius. The experiment is described as follows: Minimal Inhibitory Concentration (MIC) assay, broth dilution in TSB, turbidity scored visually. The following applies: for Growth in TSB at pH 7.0: turbidity after 48 hours; for Concentration inhibiting the Alicyclobacillus acidocaldarius test strain (MIC): TSB, pH 7.0, 48 hours. The method, then:
The basic assay was performed by serially diluting the inhibitors using a two-fold dilution series in a nutrient broth. The dilutions provided inhibitor concentrations in the range of 0.025 ppm to 100 ppm. The nutrient broth used was trypticase soy broth (TSB) (at pH 7.0) for the Alicyclobacillus acidocaldarius. All dilution series were inoculated with approximately 10,000 bacteria per 5 ml. of broth using freshly cultured (using the same medium) cells per 5 ml. of test assay broth. In each assay, an inoculated sample of the broth without any inhibitor addition was used as a control. Growth was evaluated by visually assessing and scoring the development of turbidity in the broth after 48 hours. The results of the studies are summarized in Table 2 which gives the data from testing the effectiveness of the tetrahydroisohumulone and hexahydrocolupulone in inhibiting Alicyclobacillus acidocaldarius. […] Hexahydrocolupulone inhibited the Alicyclobacillus acidocaldarius test strain at or above 0.05 ppm.

The subject of another experiment is Alicyclobacillus. The experiment is described as follows: Inhibition of Alicyclobacillus in a solid or liquid medium (general statement).

On to `CC(C)CCC(=O)C1(O)C(O)=C(C(=O)CC(C)C)C(=O)C1CCC(C)C` (stereo not shown) [Tetrahydroisohumulone, tetrahydroisohumulone], for which the “Growth in BAM at pH 4.0 at 45° C.” value in experiment [1] (0.025 ppm), in experiment [1] (0.05 ppm), in experiment [1] (0.1 ppm), in experiment [1] (0.2 ppm), in experiment [1] (0.4 ppm) and in experiment [1] (0.8 ppm) was “++++ growth” each time. For the same compound, the “Growth in BAM at pH 4.0 at 45° C.” value was “++++ growth” in experiment [1] (1.6 ppm); “++++ growth” in experiment [1] (3.125 ppm); “++++ growth” in experiment [1] (6.25 ppm); “++++ growth” in experiment [1] (12.5 ppm); “No growth” in experiment [1] (25 ppm); “No growth” in experiment [1] (50 pm). In experiment [1] (100 ppm), the “Growth in BAM at pH 4.0 at 45° C.” value is listed as “No growth”. The “Concentration inhibiting the Alicyclobacillus acidoterrestris test strain (MIC)” value in experiment [1] (BAM, pH 4.0, 45° C., 72 hours) is recorded as not below 25 ppm. For the same compound, the “Growth in TSB at pH 7.0” value in experiment [2] (0.025 ppm), in experiment [2] (0.05 ppm), in experiment [2] (0.1 ppm), in experiment [2] (0.2 ppm), in experiment [2] (0.4 ppm) and in experiment [2] (0.8 ppm) was “++++ growth” each time. Moreover, the “Growth in TSB at pH 7.0” value in experiment [2] (1.6 ppm) was “++++ growth”; in experiment [2] (3.125 ppm), “No growth”; in experiment [2] (6.25 ppm), “No growth”; in experiment [2] (12.5 ppm), “No growth”; in experiment [2] (25 ppm) it was “No growth”; in experiment [2] (50 ppm), “No growth”. In experiment [2] (100 ppm), the “Growth in TSB at pH 7.0” value is “No growth”. In addition, the “Concentration inhibiting the Alicyclobacillus acidocaldarius test strain (MIC)” value in experiment [2] is given as not below 3.125 ppm. Moreover, the “Concentration effective in inhibiting Alicyclobacillus” value in the experiment with Alicyclobacillus was not below 3 ppm.

`CC(C)CCC1=C(O)C(C(=O)C(C)C)=C(O)C(CCC(C)C)(CCC(C)C)C1=O` [Hexahydrocolupulone, hexahydrocolupulone]: the “Growth in BAM at pH 4.0 at 45° C.” value in experiment [1] (0.025 ppm), in experiment [1] (0.05 ppm), in experiment [1] (0.1 ppm), in experiment [1] (0.2 ppm), in experiment [1] (0.4 ppm) and in experiment [1] (0.8 ppm) was “++++ growth” in each case. For the same compound, the “Growth in BAM at pH 4.0 at 45° C.” value in experiment [1] (1.6 ppm) is reported as “++++ growth”; in experiment [1] (3.125 ppm) it was “++++ growth”; in experiment [1] (6.25 ppm), “++++ growth”; in experiment [1] (12.5 ppm), “++++ growth”; in experiment [1] (25 ppm), “++++ growth”; in experiment [1] (50 pm) it was “No growth”. Also, in experiment [1] (100 ppm), the “Growth in BAM at pH 4.0 at 45° C.” value was “No growth”. The “Growth in TSB at pH 7.0” value is listed as “++ growth” in experiment [2] (0.025 ppm); “No growth” in experiment [2] (0.05 ppm); “No growth” in experiment [2] (0.1 ppm); “No growth” in experiment [2] (0.2 ppm); “No growth” in experiment [2] (0.4 ppm); “No growth” in experiment [2] (0.8 ppm). Further, the “Growth in TSB at pH 7.0” value in experiment [2] (1.6 ppm), in experiment [2] (3.125 ppm), in experiment [2] (6.25 ppm), in experiment [2] (12.5 ppm), in experiment [2] (25 ppm) and in experiment [2] (50 ppm) was “No growth” in each case. Besides, the “Growth in TSB at pH 7.0” value in experiment [2] (100 ppm) is on record as “No growth”. Also, the “Concentration inhibiting the Alicyclobacillus acidocaldarius test strain (MIC)” value in experiment [2] was not below 0.05 ppm. Moreover, the “Concentration effective in inhibiting Alicyclobacillus” value in the experiment with Alicyclobacillus was not below 0.05 ppm.

In the case of `CC(C)=CCC1=C(O)C(C(=O)C(C)C)=C(O)C(CC=C(C)C)(CC=C(C)C)C1=O` [Colupulone, colupulone], the “Growth in BAM at pH 4.0 at 45° C.” value in experiment [1] (0.025 ppm), in experiment [1] (0.05 ppm), in experiment [1] (0.1 ppm), in experiment [1] (0.2 ppm), in experiment [1] (0.4 ppm) and in experiment [1] (0.8 ppm) was “++++ growth” in each case. Moreover, the “Growth in BAM at pH 4.0 at 45° C.” value in experiment [1] (1.6 ppm) was “++++ growth”; in experiment [1] (3.125 ppm), “++++ growth”; in experiment [1] (6.25 ppm), “++++ growth”; in experiment [1] (12.5 ppm), “++++ growth”; in experiment [1] (25 ppm) it was “++++ growth”; in experiment [1] (50 pm), “No growth”. The “Growth in BAM at pH 4.0 at 45° C.” value in experiment [1] (100 ppm) was “No growth”.
